Data: patent publication US20140194388A1, “COMBINATION THERAPY OF HSP90 INHIBITORY COMPOUNDS WITH CHK INHIBITORS” (SYNTA PHARMACEUTICALS CORP., priority 2011, published 2014)

What was measured:
B-raf = conditions: cited from earlier work
CHK1 = test: Western blotting, CHK1 level / CHK activity after ganetespib (FIG. 1); assay type: cell-based, human
Procedure: (§1) The LNCaP, 22Rv1, DU145 and PC3 human prostate cancer cell lines were all purchased from the American Type Culture Collection (Manassas, Va., USA). Cells were maintained and cultured according to standard techniques at 37° C. in 5% (v/v) CO2 using culture medium recommended by the supplier. All primary antibodies were purchased from Cell Signaling Technology (Beverly, Mass., USA) with the exception of RAF1 (Santa Cruz Biotechnology, Santa Cruz, Calif., USA), p-EGFR (Tyr1068) (Invitrogen, Carlsbad, Calif., USA) and actin (GE Healthcare, UK). The Hsp90 inhibitors ganetespib and 17-AAG were synthesized at Synta Pharmaceuticals Corp.
(§2) Prostate cancer cell lines were lysed in RIPA buffer (Cell Signaling Technology, Beverly, Mass. USA). Lysates were clarified by centrifugation and equal amounts of protein resolved by SDS-PAGE before transfer to nitrocellulose membranes. Membranes were blocked with 5% skim milk in TBS with 0.5% Tween and immunoblotted with indicated antibodies. Antigen-antibody complexes were visualized using an Odyssey system (LI-COR, Lincoln, Nebr., USA).

CDK1 = test: Western blotting, CDK1 level after ganetespib (FIG. 1); assay type: cell-based, human
Procedure: as §1, §2

SMILES	degradation of B-raf (B-raf; cancer cells treated with 17AAG)	sensitivity of B-raf mutants E586K and L597V to degradation (B-raf; cells treated with 17AAG)	rate of B-raf degradation, V600E mutant vs wild type (B-raf; melanoma cell line A375 (V600E) vs CHL cells (wild type B-raf))	rate of degradation of B-raf mutants V600D, G469A, G469E, G596R, G466V, G594V (B-raf; transvected into COS cells)	disruption of CHK activity by inhibition of Hsp90 activity (CHK1)	effect on stability of the DNA damage checkpoint CHK1 (CHK1; FIG. 1)	effect on stability of the master cell cycle regulator CDK1 (CDK1)
C=CCNC1=C2C[C@@H](C)C[C@H](OC)[C@H](O)[C@@H](C)/C=C(\C)[C@H](OC(N)=O)[C@@H](OC)/C=C\C=C(/C)C(=O)NC(=CC1=O)C2=O [Compound 17AAG]	stimulate the degradation of B-raf	not sensitive to degradation	degraded more rapidly than in CHL cells	degraded more rapidly than wild type B-raf	–	–	–
CC(C)c1cc(-c2nnc(O)n2-c2ccc3c(ccn3C)c2)c(O)cc1O [ganetespib, 3-(2,4-DIHYDROXY- 5-ISOPROPYL- PHENYL)-4-(1- METHYL-INDOL- 5-YL)-5- HYDROXY- [1,2,4]TRIAZOLE]	–	–	–	–	highly effective in disrupting CHK activity	destabilizes	destabilizes
